How the values were obtained:
[1] = test system: IKACh in dog atrial trabecular muscle preparations; assay: Action potential duration in carbachol-pretreated dog atrial trabecular muscle; settings: 1 µM, 10 min
Procedure: The possible effect of SZV-2649 on IKACh was investigated in dog atrial trabecular muscle preparations. Carbachol (1 µM) was added to the tissue bath for 10 min to activate IKACh. […] Application of 10 µM SZV-2649 prolonged APD substantially to a greater degree (100%) than could be expected by its effect on repolarization in the absence of carbachol (10%) as shown in Table 1; Fig. 5D.
Action potentials were recorded in cardiac ventricular trabeculae and papillary muscle preparations obtained from the right ventricles of Beagle dogs (10–15 kg) of either sex using the conventional microelectrode technique. Dogs were sacrificed by iv. sedation with xylazine (1 mg/kg), followed by i.v. administration of 50 mg/kg pentobarbital. After the cornea reflex disapeared the chest was opened, and the heart was rapidly removed. […]
Isolated papillary muscle or atrial trabecula and Purkinje fiber preparations were obtained and prepared from the right ventricle and were individually mounted in a tissue chamber with the volume of 50 ml. […] Transmembrane potentials were recorded using conventional glass microelectrodes, filled with 3 M KCl and having tip resistances of 5–20 MΩ, connected to the input of a high impedance electrometer (Experimetria, type 309, Budapest, Hungary) which was coupled to a dual beam oscilloscope. […]

anesthetized rats = assay: Coronary artery occlusion/reperfusion-induced ventricular arrhythmias in anesthetized rats; type: in vivo, rat; settings: for Effect on incidence of ventricular arrhythmias: 6 min coronary artery occlusion / 5 min reperfusion, i.v. 2 min before ischemia; for Incidence of ventricular fibrillation (VF): during reperfusion, over 50% in control animals; for Effect on heart rate: i.v. administration, anesthetized rats
Excerpt: The effects of SZV-2649 were further studied in the acute ischemia-induced ventricular arrhythmia model in anasthetized rats. Mexiletine and dofetilide were used as reference compounds for comparison.
The surgical procedure was based on a modified method described in detail in Gömöri et al. (2020)[62]. Pentobarbital-anesthetized male Wistar-Hannover rats were mechanically ventilated and subjected to thoracic surgery to perform a 6-min coronary artery occlusion and 5-min of reperfusion for the development of ischemia-induced ventricular arrhythmias (see Fig. 6A). The right jugular vein was cannulated for the administration of SZV-2649, vehicle, mexiletine or dofetilide, and the right carotid artery was used to measure blood pressure. The three-lead electrocardiogram and body temperature were continuously registered. Ten to twelve rats per group were administered vehicle (dimethyl sulfoxide, 200 µL/kg) or the studied drugs (see above), 2 min before the onset of ischemia as a slow i.v. bolus injection through the right jugular vein. At the end of 5-min reperfusion, hearts were isolated, mounted onto a Langendorff perfusion system, and after re-occluding the coronary artery, were perfused with 5-mL of 70% ethanol via the ascending aorta to delineate the ischemic risk zone. Then the left ventricles were cut along the demarcation lines of denatured area, and the sections were weighed to determine the area of risk to normalize the extent of the ischaemic insult. We evaluated the occurrence of ventricular arrhythmias based on the recommendations of the modified Lambeth Conventions published previously by Curtis et al. (2013)[63].

anesthetized dogs = assay: Atrial fibrillation induced by carbachol infusion and burst stimulation in anesthetized dogs; type: in vivo, dog; set-up: key to AF converted to SR? / AF reinduced?: N, response not observed; Y, response observed; settings: i.v. 0.3 mg/kg
Procedure: The effect of SZV-2649 was further investigated in carbachol-infused and programmed electrical stimulation-induced (i.e. 800/min atrial burst stimulation) acute atrial fibillation model in anesthetized dogs.
In the atrial fibrillation experiments, at least 5–6 dogs for control and test groups, (respectively) were used. Following 0.5 µg/kg sufentanyl premedication and […] i.v. pentobarbital anaesthesia induction, left thoracotomy was performed on all animals. Dogs were endotracheally intubated and mechanically ventilated (UGO Basile respirator; Biological Research Apparatus, Italy) Physiological parameters (non-invasive blood pressure, SpO2, ECG) were continuously monitored during surgery and experiments (InnoCare-VET Patient Care Monitor; Budapest, Hungary). The ECGs were recorded using precordial leads and were digitized and stored on a computer for off-line analysis using National Instruments data acquisition hardware (National Instruments, Austin, Texas, USA) and SPEL Advanced Haemosys software (version 3.2, MDE Heidelberg GmbH, Germany). Under pentobarbital anaesthesia, two pacemaker electrodes (Biotronik Solia S 60; Biotronik Ltd., Hungary) were positioned epicardially into the left atrial appendage and apex of the left ventricle, respectively, and electrodes were connected to pacemakers (Effecta D; Biotronik Hungary Ltd., Hungary). Pacemakers were programmed in VVI mode using Biotronik IC: 4808 A-Renamic programmer to prevent the potentially bradycardic effect of carbachol leading to hemodynamic instability. Atrial and ventricular thresholds were measured before AF induction in all animals. Ventricular and atrial pacing were set to three times the measured threshold. AF inducibility were tested in both groups using a control set (25 times) of 10-second-long rapid atrial bursts (800 beats/min, at threefold threshold). Following 25 atrial burst stimuli, 2 × 2 µg/kg loading dose of intravenous carbachol was administered followed by an 8 µg/kg/h maintenance dose. Atrial fibrillation was induced using 10-second-long atrial burst stimuli in the presence of carbachol in both groups of dogs. […] In these experiments, we investigated whether AF was converted to SR by the test drug(s). All intravenous infusions were performed using a programmable infusion pump (Terufusion TE-3; Terumo Europe, Leuven, Belgium).

Compound | Effect on incidence of ventricular arrhythmias (anesthetized rats) | Incidence of ventricular fibrillation (VF) (anesthetized rats) [%] | Effect on heart rate (anesthetized rats) | other results
C[N+](C)(C)CCOC(N)=O [carbachol, reference compound] |  |  |  | Effect on atrial repolarization [1]: substantially shortened
CN(CCOc1ccc(NS(C)(=O)=O)cc1)CCc1ccc(NS(C)(=O)=O)cc1 [dofetilide] | increased | 75 | significantly decreased | 
Cc1cccc(C)c1OCC(C)N (centres unmarked) [mexiletine] | showed some antiarrhythmic effects | 18 | significantly decreased | 
CCCNCC(O)COc1ccccc1C(=O)CCc1ccccc1 (centres unmarked) [propafenone, reference compound] |  |  |  | AF reinduced (number of the 25 burst stimuli) (anesthetized dogs; individual dogs, carbachol + burst): 1/25; AF reinduced? (anesthetized dogs; individual dogs, carbachol + burst, 0.3 mg/kg): N (-) and Y; Atrial fibrillation reinduced, share of burst stimuli (anesthetized dogs; whole group): 1.6%; Times atrial fibrillation was reinduced by the 25 burst stimuli delivered in each animal (anesthetized dogs; whole group): 2 times
